Assay [1] concerns A2780. In words: Reversal of induction of apoptosis in cisplatin-resistant human A2780 cells assessed as inhibition of cleaved caspase-7 by immunoblot analysis in presence of PTEN-specific siRNA. The class given is functional, cell-based.
The subject of assay [2] is A2780. Put plainly: Induction of apoptosis in cisplatin-resistant human A2780 cells overexpressing PTEN assessed as enhancement of cleaved PARP by Western blotting. The class given is functional, cell-based.
Assay [3] deals with A2780. In words: Induction of apoptosis in cisplatin-resistant human A2780 cells assessed as accumulation at sub-G1 phase at 2 uM after 24 hrs by flow cytometry relative to control. The class given is functional.
In assay [4] the test system is A2780. Put plainly: Induction of apoptosis in cisplatin-resistant human A2780 cells assessed as enhancement of p27 level at 2 uM by immunoblot analysis. The format is functional, cell-based.
A further assay has as its system CHO. In words: Cell viability of CHO cells after 24 hrs by MTT assay. The class given is functional, cell-based. The following applies: Cricetulus griseus.
In assay [5] the test system is A2780. In words: Cell viability of cisplatin-resistant human A2780 cells overexpressing PTEN at 2 uM after 24 hrs by MTT assay. The format is functional, cell-based.
Assay [6] deals with A2780. Put plainly: Induction of apoptosis in cisplatin-resistant human A2780 cells assessed as enhancement of p53 phosphorylation at 2 uM by immunoblot analysis. The class given is functional, cell-based.
In assay [7] the test system is A2780. In words: Induction of apoptosis in cisplatin-resistant human A2780 cells overexpressing PTEN assessed as enhancement of p21 by Western blotting. The class given is functional, cell-based.
The test system of assay [8] is A2780. Put plainly: Reversal of induction of apoptosis in cisplatin-resistant human A2780 cells assessed as inhibition of cleaved caspase-3 by immunoblot analysis in presence of PTEN-specific siRNA. The class given is functional, cell-based.
Assay [9] relates to A2780. Put plainly: Reversal of induction of apoptosis in cisplatin-resistant human A2780 cells assessed as suppression of PTEN by immunoblot analysis in presence of PTEN-specific siRNA. The class given is functional, cell-based.
Assay [10] deals with A2780. In words: Induction of apoptosis in cisplatin-resistant human A2780 cells assessed as decrease in CycB1 expression at 2 uM by immunoblot analysis. The class given is functional, cell-based. The following applies: TDE = time-dependent effect.
The test system of assay [11] is A2780. In words: Induction of apoptosis in cisplatin-resistant human A2780 cells assessed as accumulation at G2/M phase at 2 uM after 3 hrs by flow cytometry relative to control. The format is functional.
Assay [12] relates to A2780. Put plainly: Induction of apoptosis in cisplatin-resistant human A2780 cells assessed as decrease in CycD1 expression at 2 uM by immunoblot analysis. The following applies: TDE = time-dependent effect. The format is functional, cell-based.
Assay [13] has as its system A2780. In words: Induction of apoptosis in cisplatin-resistant human A2780 cells assessed as decrease in Cdc25C expression at 2 uM by immunoblot analysis. The class given is functional, cell-based. The following applies: TDE = time-dependent effect.
Assay [14] concerns A2780. In words: Induction of apoptosis in cisplatin-resistant human A2780 cells assessed as increase in Fas/CD95 receptor expression at 2 uM after 6 to 24 hrs by immunoblot analysis. The format is functional, cell-based.
The subject of assay [15] is A2780. Put plainly: Induction of apoptosis in cisplatin-resistant human A2780 cells assessed as decrease in Cdc2 expression at 2 uM by immunoblot analysis. The format is functional, cell-based. The following applies: TDE = time-dependent effect.
Assay [16] concerns A2780. Put plainly: Induction of apoptosis in cisplatin-resistant human A2780 cells overexpressing PTEN assessed as inhibition of pAkt by Western blotting. The format is functional, cell-based.
Assay [17] has as its system A2780. In words: Induction of apoptosis in cisplatin-resistant human A2780 cells assessed as accumulation at G2/M phase at 2 uM after 12 hrs by flow cytometry relative to control. The format is functional.
In assay [18] the test system is A2780. Put plainly: Reversal of induction of apoptosis in cisplatin-resistant human A2780 cells assessed as increase of Akt phosphorylation by immunoblot analysis in presence of PTEN-specific siRNA. The format is functional, cell-based.
In assay [19] the test system is A2780. In words: Reversal of induction of apoptosis in cisplatin-resistant human A2780 cells assessed as accumulation at sub-G1 phase at 2 uM after 24 hrs by flow cytometry in presence of z-VAD-fmk. The class given is functional, cell-based.
For assay [20], the system named is A2780. In words: Induction of apoptosis in cisplatin-resistant human A2780 cells overexpressing PTEN assessed as enhancement of cleaved caspase-3 by Western blotting. The class given is functional, cell-based.
Assay [21] concerns A2780. In words: Induction of apoptosis in cisplatin-resistant human A2780 cells assessed as activation of caspase cascade at 2 uM after 6 to 24 hrs by Western blotting. The format is functional, cell-based.
Assay [22] has as its system A2780. Put plainly: Induction of apoptosis in cisplatin-resistant human A2780 cells assessed as increase in FasL receptor expression at 2 uM by immunoblot analysis. The class given is functional, cell-based. The following applies: TDE = time-dependent effect.
Assay [23] has as its system A2780. Put plainly: Induction of apoptosis in cisplatin-resistant human A2780 cells overexpressing PTEN assessed as enhancement of p53 by Western blotting. The format is functional, cell-based.
The subject of assay [24] is A2780. Put plainly: Cell viability of cisplatin-resistant human A2780 cells after 24 hrs by MTT assay. The class given is functional, cell-based. The settings on record: A2780, 24 h.
Assay [25] relates to A2780. Put plainly: Induction of apoptosis in cisplatin-resistant human A2780 cells assessed as decrease in MDM2 level at 2 uM by immunoblot analysis. The format is functional, cell-based. The following applies: TDE = time-dependent effect.
Assay [26] concerns A2780. Put plainly: Cell viability of human cisplatin-sensitive human A2780 cells after 24 hrs by MTT assay. The class given is functional, cell-based. The following applies: A2780, 24 h.
Assay [27] deals with A2780. In words: Induction of apoptosis in cisplatin-resistant human A2780 cells assessed as inhibition of pPTEN degradation at 2 uM by immunoblot analysis. The class given is functional, cell-based.
For assay [28], the system named is A2780. In words: Induction of apoptosis in cisplatin-resistant human A2780 cells assessed as inhibition of PTEN degradation at 2 uM by immunoblot analysis. The class given is functional, cell-based.
The subject of assay [29] is A2780. In words: Induction of apoptosis in cisplatin-resistant human A2780 cells assessed as accumulation at G2/M phase at 2 uM after 6 hrs by flow cytometry relative to control. The format is functional.
Assay [30] has as its system A2780. Put plainly: Induction of apoptosis in cisplatin-resistant human A2780 cells assessed as enhancement of p53 level at 2 uM by immunoblot analysis. The format is functional, cell-based.
Assay [31] concerns A2780. Put plainly: Induction of apoptosis in cisplatin-resistant human A2780 cells assessed as decrease in phosphorylated Akt level at 2 uM after 12 hrs by immunoblot analysis. The format is functional, cell-based.
For assay [32], the system named is A2780. In words: Reversal of induction of apoptosis in cisplatin-resistant human A2780 cells assessed as decrease of p53 level by immunoblot analysis in presence of PTEN-specific siRNA. The class given is functional, cell-based.
Assay [33] deals with A2780. In words: Induction of apoptosis in cisplatin-resistant human A2780 cells assessed as decrease in pERK1/2 level at 2 uM after 24 hrs by immunoblot analysis. The class given is functional, cell-based.
Assay [34] deals with A2780. Put plainly: Induction of apoptosis in cisplatin-resistant human A2780 cells assessed as decrease in CycA expression at 2 uM by immunoblot analysis. The format is functional, cell-based. The following applies: TDE = time-dependent effect.
Assay [35] deals with A2780. Put plainly: Induction of apoptosis in cisplatin-resistant human A2780 cells assessed as increase in TNFR1 expression at 2 uM after 6 to 24 hrs by immunoblot analysis. The class given is functional, cell-based.
Assay [36] concerns A2780. In words: Reversal of induction of apoptosis in cisplatin-resistant human A2780 cells assessed as inhibition of cleaved PARP by immunoblot analysis in presence of PTEN-specific siRNA. The class given is functional, cell-based.
Assay [37] concerns A2780. In words: Induction of apoptosis in cisplatin-resistant human A2780 cells assessed as decrease in pERK1/2 level at 2 uM after 48 hrs by immunoblot analysis. The class given is functional, cell-based.
Assay [38] has as its system A2780. Put plainly: Reversal of induction of apoptosis in cisplatin-resistant human A2780 cells assessed as decrease of p21 level by immunoblot analysis in presence of PTEN-specific siRNA. The class given is functional, cell-based.
The test system of assay [39] is A2780. In words: Induction of apoptosis in cisplatin-resistant human A2780 cells assessed as change in Wee1 level at 2 uM by immunoblot analysis. The class given is functional, cell-based.
The test system of assay [40] is A2780. Put plainly: Induction of apoptosis in cisplatin-resistant human A2780 cells assessed as enhancement of p21 level at 2 uM by immunoblot analysis. The class given is functional, cell-based.

Molecules are shown by their SMILES. Activity calls are given as the source filed them. The rule behind the calls is not given here. Residues, ends and D or L forms follow the SMILES beside them. *: point of attachment. Cbz = O=C(OCc1ccccc1)*

Consider `O=C1/C(=C/c2ccccc2F)CNC/C1=C\c1ccccc1F`, for which the outcome in the assay on A2780 [1], in the assay on A2780 [2], with A2780 [5], in the assay with A2780 [6], with A2780 [7] and with A2780 [8] was Active. Further, the result with A2780 [9], with A2780 [16], with A2780 [18], with A2780 [19], with A2780 [20] and in the assay with A2780 [21] was Active. The result in the assay with A2780 [23], in the assay on A2780 [27], in the assay on A2780 [28], in the assay with A2780 [30], in the assay with A2780 [31] and with A2780 [32] was Active. In addition, the result in the assay on A2780 [33], in the assay with A2780 [36], with A2780 [37], in the assay with A2780 [38] and in the assay on A2780 [40] was Active. Further, the Activity with A2780 [3] was 35.3%; in the assay on A2780 [10], “tde”; with A2780 [11], 27.3%; in the assay with A2780 [12], “tde”; in the assay on A2780 [13], “tde”; with A2780 [15], “tde”. Besides, the Activity in the assay on A2780 [17] is 57.5%; in the assay on A2780 [22] it was “tde”; with A2780 [25] it was “tde”; with A2780 [29], 36.8%; in the assay with A2780 [34], “tde”. Besides, the outcome with A2780 [4], with A2780 [14], with A2780 [35] and in the assay on A2780 [39] was inactive. The IC50 is 4.6 µM in the assay on CHO, 0.65 µM in the assay with A2780 [24] and 0.5 µM with A2780 [26].
With `CC(C)C[C@@H](C=O)NC(=O)[C@H](CC(C)C)NC(=O)[C@H](CC(C)C)NC(=O)OCc1ccccc1` (Cbz-Leu-Leu-Leu-aldehyde), in the assay on A2780 [28], the outcome was Active.
Turning to `O=c1cc(N2CCOCC2)oc2c(-c3ccccc3)cccc12`, the result in the assay with A2780 [31] was Active.

The values are drawn from ChEMBL document CHEMBL1156497, “EF24 induces G2/M arrest and apoptosis in cisplatin-resistant human ovarian cancer cells by increasing PTEN expression” (J Biol Chem, 2007).
